# Source: patent US20250123297A1, “Supermere Nanoparticles and Methods of Isolation and Use Thereof” (Vanderbilt University, priority 2021, published 2025)
# Assays:
# MDA-MB-231 cells = test: Inhibition of cellular supermere uptake by uptake inhibitors; format: cell-based, human; details: 30 min pre-incubation with inhibitor, labeled supermeres 24 h, 100 nM bafilomycin A
# Description: (§1) For inhibitor treatment before supermere uptake, MDA-MB-231 cells were seeded at 20,000 cells per well or Hela cells at 25,000 cells per well on a 35-mm dish (P35G-0.170-14-C, MatTek Corporation) in DMEM culture media. Twenty-four hours later, cells were pre-incubated with the inhibitors in serum free DMEM media for 30 min. The following inhibitors were used: 100 nM bafilomycin A (Sigma, SML1661-. 1ML), 20 μM dynasore (Sigma, D7693-5 MG), 25 μM CK666 (Sigma, SML0006), 5 μM cytochalasin D (Sigma, C2618-200 ul). The Alexa Fluor 647-labeled supermeres (40 μg/ml) were added to the cells for 24 h in the presence of indicated inhibitors. […] Brightfield (30 ms exposure time) and fluorescence (640 Far Red, 10% laser power, 100 ms exposure time) images were taken of 10 or more fields of view, each with several cells per field. Three z-slices 1 μm apart were taken of each fluorescent field and the brightest slice was analyzed.
# (§2) Brightfield images were used to identify cell boundaries and an ROI was drawn manually around each cell in each field of view. These region of interests (ROIs) were then opened on the fluorescent image and the mean fluorescence intensity of each ROI (cell) was measured. For each field of view, a background ROI was drawn in a region with no cells, and this background value was subtracted from each cell fluorescence mean in the field of view. […]
# Hela cells = test: as above; format: cell-based; details: 30 min pre-incubation with inhibitor, labeled supermeres 24 h, 100 nM bafilomycin A
# Description: as §1, §2
smiles,measurement,setting,value
CO/C1=C\C(C)=C\[C@@H](C)[C@@H](O)[C@@H](C)C/C(C)=C/C=C/[C@H](OC)[C@@H]([C@@H](C)[C@@H](O)[C@H](C)[C@@]2(O)C[C@@H](O)[C@H](C)[C@@H](C(C)C)O2)OC1=O [bafilomycin A],inhibition of supermere internalization,MDA-MB-231 cells,greatest inhibition of supermere internalization
same,inhibition of supermere internalization,Hela cells,greatest inhibition of supermere internalization
